Experimental data: PMC8365602 (Journal of Medicinal Chemistry, 2021)

Legend:
monocytes = experiment: Monocyte membrane integrity (LDH release); type: cell-based, human; conditions: higher concentrations (>1 μM)
Experimental: To measure mitochondrial dehydrogenase activity, 3-(4,5-dimethylthiazol-2-yl)-2,5-diphenyltetrazolium bromide (MTT) (20 μL, 5 mg/mL, Sigma-Aldrich) was added to PBMC. After 4 h in the darkness, the formed formazan product was solubilized (10% SDS in 20 mM HCl) and the absorbance was read at 570 nm using a Multiskan Spectrum microplate reader (Thermo Fisher Scientific).[81]
LDH release was measured in monocytes using a CytoTox 96 nonradioactive cytotoxicity assay (Promega, Madison, WI) according to the manufacturer’s instruction using Triton X-100 (0.8%) as the maximum LDH release control.

[1] = Hepatic metabolism in human liver-on-chip; type: in vitro ADME; conditions: 1 μM, 48 h
Experimental: LCMs, 27a, and 27a metabolites were extracted from PMNL, medium of the liver-on-chip, murine plasma, peritoneal exudate, or homogenized murine tissue as described.[6] In brief, PBS pH 7.4, methanol, chloroform, and saline (final ratio: 14:34:35:17) were successively added together with 13d (9 pmol) as the internal standard. The organic layer was evaporated, and the extracted LCMs were dissolved in methanol.
LCMs, 27a, and 27a metabolites were separated at a flow rate of 0.8 mL/min and a column temperature of 45 °C, with acetonitrile/H2O (10:90) as mobile phase A and acetonitrile as mobile phase B, both acidified with 0.07% formic acid. The linear gradient from A/B = 50:50 to 0:100 within 4.5 min was followed by isocratic elution with A/B = 0:100 for 1 min. MS parameters were adjusted according to Pein et al.[6] and as detailed in Table S3. Signal intensities were normalized to the internal standard 13d, and concentrations were calculated using external calibration curves as specified in Table S3. […]
The medium between the two membranes was renewed, and the vehicle (DMSO), 12a, or 27a were added. […] 12a, 27a, and their metabolites were extracted from the combined fractions and analyzed by UPLC-MS/MS.[6]

5-LOX [2] = target: T1, 5-LOX (Homo sapiens, UniProt P09917); experiment: 5-LOX product formation in activated PMNL; conditions: PMNL, read-out: 5-LOX PMNL residual activity at 3 μM;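 note: freshly isolated human PMNL in PBS pH 7.4 plus glucose, preincubated 10 min at 37 °C with compound, 5-LOX products (all-trans LTB4 isomers, 5-HETE) quantified by RP-HPLC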
T1 sequence (P09917 1-674): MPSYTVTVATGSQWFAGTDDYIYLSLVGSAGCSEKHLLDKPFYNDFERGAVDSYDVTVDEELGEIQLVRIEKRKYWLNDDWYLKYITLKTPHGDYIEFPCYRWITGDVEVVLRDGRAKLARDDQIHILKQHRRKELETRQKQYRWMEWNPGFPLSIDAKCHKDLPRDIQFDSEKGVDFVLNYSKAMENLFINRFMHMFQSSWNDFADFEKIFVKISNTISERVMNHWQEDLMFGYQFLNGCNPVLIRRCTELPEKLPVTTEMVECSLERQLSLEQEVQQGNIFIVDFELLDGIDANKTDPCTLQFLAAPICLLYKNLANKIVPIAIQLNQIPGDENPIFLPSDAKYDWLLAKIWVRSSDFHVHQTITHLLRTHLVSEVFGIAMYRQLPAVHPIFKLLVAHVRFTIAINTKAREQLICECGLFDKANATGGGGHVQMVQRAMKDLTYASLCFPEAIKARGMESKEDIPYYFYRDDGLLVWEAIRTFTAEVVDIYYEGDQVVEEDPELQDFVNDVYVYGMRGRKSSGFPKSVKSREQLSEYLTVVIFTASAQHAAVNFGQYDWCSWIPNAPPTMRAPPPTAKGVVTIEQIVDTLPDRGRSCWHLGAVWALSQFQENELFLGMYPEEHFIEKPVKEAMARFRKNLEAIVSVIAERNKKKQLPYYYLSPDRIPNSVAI

5-LOX [3] = target: T1, 5-LOX; experiment: Tryptophan fluorescence spectroscopy of 5-LOX; type: binding; design: made in house; host or cells: E. coli Bl21 (DE3); conditions: 5-LOX titrated with compound, 0–10 μM
Experimental: Fluorescence spectroscopy measurements on human recombinant 5-LOX (Abcam, Cambridge, U.K.) were conducted in PBS pH 7.4 at 25 °C using an Edinburgh Instruments FLS920 Series fluorescence spectrophotometer (Livingston, U.K.). […] The concentration range of 5-LOX used through the experiments was 0.3–0.6 μM. 5-LOX was titrated with a stock solution of the test compounds in dimethylformamide to yield an experimental compound concentration in the range of 0–10 μM. The final dimethylformamide concentration was kept under 5%. After each addition, the sample was incubated for 10 min before measurement. The fluorescence emission intensity values were corrected for dilution and background noise. All conditions were measured independently and in duplicate.
The fluorescence spectral shifts were analyzed by monitoring the alterations in the spectral center of mass by estimating the intensity-averaged emission wavelength (⟨λ⟩), as calculated from the following equation, where Fi is the fluorescence emission intensity at wavenumber νi, and the summation was performed over the range of measured F values [drawing 1] 1

5-LOX [4] = target: T1, 5-LOX; experiment: Cell-free 5-LOX activity (isolated human recombinant enzyme); conditions: read-out: 5-LOX enzyme residual activity at 1 μM
Experimental: Human recombinant 5-LOX was expressed in E. coli Bl21 (DE3) cells that were transformed with pT3–5LOX (wt 5-LOX), 5-LOX_3W (triple mutation of Trp102Ala/Trp13Ala/Trp75Ala), or 5-LOX_R (single mutant of the Arg101Asp plasmid) and purified on an ATP-agarose column (Econo-Pac, Bio-Rad, Hercules, CA) by affinity chromatography.[6],[75]
Purified 5-LOX (0.5 μg in PBS pH 7.4 containing 1 mM EDTA and 1 mM ATP) was preincubated with the vehicle (DMSO) or test compounds for 10 min and prewarmed at 37 °C.

[5] = system: reconstructed human epidermis (RHE); experiment: Experimental atopic dermatitis in reconstructed human epidermis (RHE); type: cell-based; conditions: 1 μM, control
Experimental: Compound 27a was evaluated in an inflammatory model of RHE by Synelvia S.A.S. (Labège, France) according to the company’s protocol.[88] In brief, primary human keratinocytes were used to generate RHE on polycarbonate filters as described.[88] RHE was allowed to acclimate for 6 days (5% CO2, 37 °C) prior to incubation with 27a (5, 10, 25 μM), dexamethasone (1 μM), or vehicle (0.05% DMSO), and a proinflammatory cytokine cocktail for 4 days at 5% CO2 and 37 °C. The culture medium including compounds and cytokines was changed on days 6, 8, and 10. Each culture condition was repeated three times. Acute cytotoxicity of 27a was excluded at the concentrations studied within 24 h by measuring the mitochondrial dehydrogenase activity (MTT assay).
Morphological changes (i.e., spongiosis and the formation of keratohyalin granules) were evaluated for sections of paraffin-embedded RHEs after hematoxylin-eosin staining.[89] The permeability of the skin barrier was estimated from the transepidermal water loss at the RHE surface.[90] The surface pH was determined with a pH electrode as reported.[89] The permeability of the stratum corneum was addressed by applying Lucifer yellow onto the RHE surface and inspecting the penetration by fluorescence microscopy.[88] TSLP and IL-8 levels were analyzed by ELISA (according to the specifications of Synelvia S.A.S.) in the culture medium on day 2 and day 4 after addition of cytokines, respectively.

[6] = Radical scavenging activity (DPPH); conditions: 25 μM, positive control
Experimental: Compound 27a was incubated with 2,2-diphenyl-1-picrylhydrazyl (DPPH, Sigma-Aldrich; 50 mM) in ethanol for 30 min, and the absorbance was measured at 520 nm using a Multiskan Spectrum Microplate Reader (Thermo Fisher Scientific).[72] The positive control ascorbic acid (Sigma-Aldrich; 25 μM) scavenged DPPH radicals by 36 ± 11%.

[7] = system: zymosan-induced murine peritonitis; experiment: Zymosan-induced peritonitis in mice; type: in vivo; conditions: 3 mg/kg p.o., 30 min post zymosan
Experimental: Male CD-1 mice (33–39 g, 6–8 weeks, Charles River Laboratories; Calco, Italy) and female BALB/c mice (20 g, 8 weeks, Charles River Laboratories) were fed with standard rodent chow and water and acclimated for 4 days at a 12 h light and 12 h dark schedule in a constant air-conditioned environment (21 ± 2 °C). Mice were randomly assigned to groups, and experiments were carried out during the light phase.
Zymosan (2 mg/mL in saline, i.p., 0.5 mL, Sigma-Aldrich) was injected at 30 min (i.p.) or 60 min (p.o.) post compound administration. Mice were sacrificed by inhalation of CO2 after another 30 min to determine LTC4 levels, lipid mediator profiles, metabolites, and vascular permeability and after 4 h to analyze LTB4 levels and cell infiltration.[72] Plasma and peritoneal exudates were collected, and cells were counted in exudates after trypan blue staining. Vascular permeability was measured by injection of Evans blue dye (40 mg/kg in saline, 0.3 mL, Sigma-Aldrich) into the tail vain directly before peritonitis induction.[72] The exudate was centrifuged (3000g, 5 min), and the absorbance was measured at 610 nm (DU730 spectrophotometer, Beckman Coulter, Krefeld, Germany). Levels of LTB4 and cysteinyl-LTs (dominated by LTC4) were quantified in the exudate by ELISA (Enzo Life Sciences, Lörrach, Germany) according to the manufacturer’s instructions. Compound 27a, its metabolites, and lipid mediators were extracted and analyzed by UPLC-MS/MS.

## Cc1c(C)c2c(c(C)c1O)CC[C@@](C)(CCCC(C)CCCC(C)CCCC(C)C(=O)O)O2 (stereo partly drawn) [Compound 12a, α-T-13′-COOH]
monocytes
  LDH release from monocytes at higher concentrations: not evident
[1]
  Hepatic metabolism: truncated to metabolites with varying side-chain lengths
5-LOX [2]
  remaining activity at 3 µM: 2 ± 0.8%
5-LOX [3]
  Shift of spectral center of mass of intrinsic Trp fluorescence of 5-LOX: substantially shifted to a shorter wavelength
5-LOX [4]
  remaining activity at 1 µM: 0.8 ± 0.2%

## C[C@@H]1C[C@H]2[C@@H]3CCC4=CC(=O)C=C[C@]4(C)[C@@]3(F)[C@@H](O)C[C@]2(C)[C@@]1(O)C(=O)CO [Dexamethasone, reference compound]
[5]
  Cytokine-induced responses in RHE: suppressed these cytokine-induced responses

## O=C1O[C@H]([C@@H](O)CO)C(O)=C1O [ascorbic acid, reference compound]
[6]
  Scavenging of DPPH radicals: 36 ± 11%

## CC(c1cc2ccccc2s1)N(O)C(N)=O (centres unmarked) [zileuton, reference compound]
[7]
  Cysteinyl-LTs in the exudate: did not evoke a stronger effect
